Data set [1] deals with bone marrow cells of BALB/c mice. The experiment in a line: Enhancing proliferation of bone marrow cells of mice (MTT reduction method). In kind it is cell-based, mouse. Particulars: concentration giving 1.3 or more times the proliferation of the group without test compound; 3 days incubation. How it is done:
To an RPMI 1640 culture medium [Bio-Wittaker Inc. (hereinafter abbreviated as BW), USA] containing 2×10^6 /ml of bone marrow cells of BALB/c mice, 2 mM of L-glutamine, 20 ug/ml of gentamicin (Flow Laboratories, Inc., Scotland), 10% fetal calf serum (BW, USA) was added a test compound in an adequate concentration, which was incubated at 37° C. for 3 days in 5% carbon dioxide in air followed by determination of proliferation of the bone marrow cells by the MTT reduction method [Tada et al., Journal of Immunological Methods, Vol. 93, p.157, 1986].
For orientation: Tetrazolium dyes change colour on reduction, which living cells bring about.

Data set [2] relates to peripheral blood leukocytes of CDF1/Crj mice. Briefly: Enhancing the number of leukocytes in cyclophosphamide-treated mice. In kind it is in vivo, mouse. The following applies: cyclophosphamide 150 mg/kg p.o., then compound 0.063 mg/kg/day s.c. for 5 days; mice without cyclophosphamide = 100%.
Procedure: Six week old female CDF1/Crj mice (5 animals/group) were subjected to the experiment. […] From the next day, each animal was administered subcutaneously with the compound suspended in 5% glucose at the following dosages for five days once a day. On the next day after completion of the administration, about 100 μl of peripheral blood was collected from orbital vein using an EDTA-treated glass capillary. Then, the number of lekocytes was counted using a automatic cell analyzer (Sysmex K-2000, Toa Medical Electronics, Japan)
In the next data set the test system is mouse. The experiment in a line: Toxicity test, intraperitoneal. In kind it is in vivo. The following applies: 100 mg/kg.

Turning to “(2R,6R)-2-amino-6,7-bis(PamO)-4-THT-Gly-Gly-Gly-Glu-Thr-Thr-OH [Compound 2]”, in data set [1], the “Minimal Effective Concentration (MEC)” value was under 0.156 ng/mL. Further, the Number of leukocytes in data set [2] is given as 102%.
As to “(2S,6R)-2-amino-6,7-bis(PamO)-4-THT-Gly-Gly-Gly-Glu-Thr-Thr-OH [Compound 3]”, the Mortality result with mouse was “No mouse administered intraperitoneally with Compound 3 at a dose of 100 mg/kg was found dead”.
With “(2R,6R)-2-amino-6,7-bis(PamO)-4-THT-NH(CH2)7 CO-Glu-OH hydrochloride [Compound 36]”, the “Minimal Effective Concentration (MEC)” value in data set [1] is under 0.156 ng/mL.

Values taken from patent US5478808A, “2-amino-6,7-dihydroxy-4-thiaheptanoic acid derivatives, production and use thereof” (Takeda Chemical Industries, Ltd., priority 1992, dated 1995).
